# Assay results reported in patent publication US6552080B1, “Fungicidal compounds having a fluorovinyl-or fluoropropenyl-oxyphenyloxime moiety and process for the preparation thereof” (Korea Research Institute of Chemical Technology, priority 1999, dated 2003).
# Like-named read-outs stand apart in the source and are kept apart here.
# How the values were obtained:
# Botrytis cinerae = assay: Fungicidal activity against Cucumber Gray Mold Rot (CGM) disease; assay type: in vivo; conditions: for CGM (Fungicidal Activities, C.V.): Cucumber Gray Mold Rot, concentration 50 ppm; for Fungicidal Activities CGM (C.V.): 50 ppm
# Rhizoctonia solani AG-1 = assay: Fungicidal activity against Rice Sheath Blight (RSB) disease; conditions: for RSB (Fungicidal Activities, C.V.): Rice Sheath Blight
# Phytophthora infestans = assay type: in vivo; conditions: for TLB (Fungicidal Activities, C.V.): Tomato Late Blight
# Puccinia recondita = assay: Fungicidal activity against Wheat Leaf Rust (WLR) disease; assay type: in vivo; conditions: for WLR (Fungicidal Activities, C.V.): Wheat Leaf Rust
# [1] = tested on: Pyricularia oryzae Carvara KA301; assay type: in vivo; conditions: for RCV (Fungicidal Activities, C.V.): Rice Blast
# Erysiphae graminis = assay: Fungicidal activity against Barley Powdery Mildew (BPM) disease; assay type: in vivo; conditions: for BPM (Fungicidal Activities, C.V.): Barley Powdery Mildew
Structure (SMILES),"CGM (Fungicidal Activities, C.V.) (Botrytis cinerae)","RSB (Fungicidal Activities, C.V.) (Rhizoctonia solani AG-1; concentration 2 ppm)","RSB (Fungicidal Activities, C.V.) (Rhizoctonia solani AG-1; concentration 50 ppm)","TLB (Fungicidal Activities, C.V.) (Phytophthora infestans; concentration 2 ppm)","TLB (Fungicidal Activities, C.V.) (Phytophthora infestans; concentration 50 ppm)","WLR (Fungicidal Activities, C.V.) (Puccinia recondita; concentration 2 ppm)","WLR (Fungicidal Activities, C.V.) (Puccinia recondita; concentration 50 ppm)","RCV (Fungicidal Activities, C.V.) ([1]; concentration 2 ppm)","RCV (Fungicidal Activities, C.V.) ([1]; concentration 50 ppm)","BPM (Fungicidal Activities, C.V.) (Erysiphae graminis; concentration 2 ppm)","BPM (Fungicidal Activities, C.V.) (Erysiphae graminis; concentration 50 ppm)","WLR (Fungicidal Activities, C.V.) (Puccinia recondita; concentration 10 ppm)","BPM (Fungicidal Activities, C.V.) (Erysiphae graminis; concentration 10 ppm)",Fungicidal Activities CGM (C.V.) (Botrytis cinerae),Fungicidal Activities RSB (C.V.) (Rhizoctonia solani AG-1; 50 ppm),Fungicidal Activities TLB (C.V.) (Phytophthora infestans; 50 ppm),Fungicidal Activities WLR (C.V.) (Puccinia recondita; 2 ppm),Fungicidal Activities WLR (C.V.) (Puccinia recondita; 50 ppm),Fungicidal Activities RCV (C.V.) ([1]; 2 ppm),Fungicidal Activities RCV (C.V.) ([1]; 50 ppm),also measured
CCOc1ccc(C=C(F)Oc2cccc(C(C)=NOCc3ccccc3C(=NOC)C(=O)OC)c2)cc1 [Compound 73],0%,25%,100%,0%,60%,98%,100%,100%,95%,100%,100%,–,–,–,–,–,–,–,–,–,–
CCc1ccc(C=C(F)Oc2cccc(C=NOCc3ccccc3C(=COC)C(=O)OC)c2)cc1 [Compound 6],44%,–,75%,–,33%,98%,100%,8%,99%,97%,100%,100%,99%,–,–,–,–,–,–,–,"RCV (Fungicidal Activities, C.V.) ([1]; concentration 10 ppm): 58%"
CNC(=O)C(=NOC)c1ccccc1CON=C(C)c1cccc(OC(F)=Cc2ccc(F)cc2)c1 [Compound 82],82%,55%,85%,85%,84%,100%,100%,100%,96%,100%,100%,–,–,–,–,–,–,–,–,–,–
CNC(=O)C(=NOC)c1ccccc1CON=Cc1cccc(OC(F)=Cc2cccc(OC)c2)c1 [Compound 35],0%,–,52%,–,0%,83%,97%,97%,100%,0%,100%,–,–,–,–,–,–,–,–,–,–
CNC(=O)C(=NOC)c1ccccc1CON=C(C)c1cccc(OC(F)=C(c2ccc(OC)cc2)C(F)(F)F)c1 [Compound 198],–,–,–,–,–,–,–,–,–,–,–,–,–,16%,58%,0%,53%,100%,95%,100%,Fungicidal Activities BPM (C.V.) (Erysiphae graminis; 2 ppm): 41%; Fungicidal Activities BPM (C.V.) (Erysiphae graminis; 50 ppm): 100%
CON=C(C(=O)OC)c1ccccc1CON=C(C)c1cccc(OC(F)=C(c2cc(Cl)cc(Cl)c2)C(F)(F)F)c1 [Compound 186],–,–,–,–,–,–,–,–,–,–,–,–,–,25%,50%,0%,66%,99%,73%,83%,Fungicidal Activities RSB (C.V.) (Rhizoctonia solani AG-1; 2 ppm): 15%; Fungicidal Activities TLB (C.V.) (Phytophthora infestans; 2 ppm): 0%; Fungicidal Activities BPM (C.V.) (Erysiphae graminis; 2 ppm): 86%; Fungicidal Activities BPM (C.V.) (Erysiphae graminis; 50 ppm): 100%
COC=C(C(=O)OC)c1ccccc1CON=C(C)c1cccc(OC(F)=C(c2ccc(OC)cc2)C(F)(F)F)c1 [Compound 158],44%,–,70%,–,0%,91%,100%,–,41%,98%,100%,98%,100%,–,–,–,–,–,–,–,–
COC=C(C(=O)OC)c1ccccc1CON=C(c1cccc(OC(F)=Cc2ccc(OC)cc2)c1)C(F)(F)F [Compound 89],0%,–,50%,–,12%,–,96%,–,80%,–,100%,70%,99%,–,–,–,–,–,–,–,–
"CO/C=C(/C(=O)OC)c1ccccc1CON=C(C)c1cccc(OC(F)=Cc2ccccc2)c1 [Compound 40, Methyl (2E)-3-Methoxy-2-{2′-[[[3″-(1′″-fluoro-2′″-phenyl-1′″-ethenyloxy)phenyl]methylimino]oxy]methylphenyl}propenoate]",75%,70%,95%,12%,97%,99%,100%,99%,100%,100%,100%,100%,100%,–,–,–,–,–,–,–,"RSB (Fungicidal Activities, C.V.) (Rhizoctonia solani AG-1; concentration 10 ppm): 75%; TLB (Fungicidal Activities, C.V.) (Phytophthora infestans; concentration 10 ppm): 68%; RCV (Fungicidal Activities, C.V.) ([1]; concentration 10 ppm): 100%"
COC=C(C(=O)OC)c1ccccc1CON=C(C)c1cccc(OC(F)=C(c2ccc(Cl)cc2)C(F)(F)F)c1 [Compound 163],–,–,–,–,–,–,–,–,–,–,–,–,–,51%,92%,12%,86%,100%,58%,90%,Fungicidal Activities RSB (C.V.) (Rhizoctonia solani AG-1; 2 ppm): 40%; Fungicidal Activities RSB (C.V.) (Rhizoctonia solani AG-1; 10 ppm): 40%; Fungicidal Activities WLR (C.V.) (Puccinia recondita; 10 ppm): 98%; Fungicidal Activities RCV (C.V.) ([1]; 10 ppm): 86%; Fungicidal Activities BPM (C.V.) (Erysiphae graminis; 2 ppm): 94%; Fungicidal Activities BPM (C.V.) (Erysiphae graminis; 10 ppm): 100%; Fungicidal Activities BPM (C.V.) (Erysiphae graminis; 50 ppm): 100%
CON=C(C(=O)OC)c1ccccc1CON=C(C)c1cccc(OC(F)=C(c2ccc(Cl)cc2)C(F)(F)F)c1 [Compound 185],–,–,–,–,–,–,–,–,–,–,–,–,–,0%,75%,50%,95%,100%,73%,96%,Fungicidal Activities RSB (C.V.) (Rhizoctonia solani AG-1; 2 ppm): 25%; Fungicidal Activities TLB (C.V.) (Phytophthora infestans; 2 ppm): 25%; Fungicidal Activities BPM (C.V.) (Erysiphae graminis; 2 ppm): 98%; Fungicidal Activities BPM (C.V.) (Erysiphae graminis; 50 ppm): 100%
COC=C(C(=O)OC)c1ccccc1CON=C(C)c1cccc(OC(F)=Cc2cccc(C)c2)c1 [Compound 41],51%,55%,95%,6%,96%,99%,100%,98%,100%,100%,100%,100%,100%,–,–,–,–,–,–,–,"RSB (Fungicidal Activities, C.V.) (Rhizoctonia solani AG-1; concentration 10 ppm): 70%; TLB (Fungicidal Activities, C.V.) (Phytophthora infestans; concentration 10 ppm): 25%; RCV (Fungicidal Activities, C.V.) ([1]; concentration 10 ppm): 100%"
